Measured values as given in the NIST ThermoML archive (doi:10.1016/j.jct.2007.07.005).
Numbers after ± are expanded uncertainties.

Assay: xn = mol fraction of the nth substance listed
Conditions: Fluid (supercritical or subcritical phases), vibrating tube

CCCCCO [pentan-1-ol] + O=C=O
Conditions | mass density [kg/m3]
332.96 K, 13004 kPa, x2 = 0.0816 | 798.35 ± 0.44
332.96 K, 13052 kPa, x2 = 0.7274 | 804 ± 0.5
332.96 K, 14008 kPa, x2 = 0.7274 | 808.02 ± 0.46
332.96 K, 14029 kPa, x2 = 0.0816 | 799.18 ± 0.44
332.96 K, 14991 kPa, x2 = 0.0816 | 799.97 ± 0.44
332.96 K, 15033 kPa, x2 = 0.7274 | 812.1 ± 0.46
332.96 K, 16004 kPa, x2 = 0.0816 | 800.75 ± 0.44
332.96 K, 16033 kPa, x2 = 0.7274 | 815.82 ± 0.46
332.96 K, 17014 kPa, x2 = 0.0816 | 801.55 ± 0.45
332.96 K, 17034 kPa, x2 = 0.7274 | 819.37 ± 0.46
332.96 K, 17988 kPa, x2 = 0.7274 | 822.59 ± 0.46
332.96 K, 18018 kPa, x2 = 0.0816 | 802.33 ± 0.45
332.96 K, 19024 kPa, x2 = 0.0816 | 803.1 ± 0.45
332.96 K, 19059 kPa, x2 = 0.7274 | 826.03 ± 0.46
332.96 K, 19981 kPa, x2 = 0.0816 | 803.83 ± 0.45
332.96 K, 20008 kPa, x2 = 0.7274 | 828.96 ± 0.46
332.96 K, 20999 kPa, x2 = 0.7274 | 831.94 ± 0.46
332.96 K, 21024 kPa, x2 = 0.0816 | 804.62 ± 0.45
332.96 K, 22023 kPa, x2 = 0.7274 | 834.87 ± 0.46
332.96 K, 22057 kPa, x2 = 0.0816 | 805.42 ± 0.45
332.96 K, 23004 kPa, x2 = 0.7274 | 837.6 ± 0.46
332.96 K, 23012 kPa, x2 = 0.0816 | 806.12 ± 0.45
332.96 K, 23961 kPa, x2 = 0.7274 | 840.19 ± 0.46
332.96 K, 24007 kPa, x2 = 0.0816 | 806.87 ± 0.45
332.96 K, 25043 kPa, x2 = 0.0816 | 807.63 ± 0.45
333.01 K, 7029 kPa, x2 = 0.1347 | 794.28 ± 0.44
333.01 K, 8022 kPa, x2 = 0.1347 | 795.19 ± 0.44
333.01 K, 9011 kPa, x2 = 0.1347 | 796.07 ± 0.44
333.01 K, 10005 kPa, x2 = 0.1347 | 796.96 ± 0.44
333.01 K, 11019 kPa, x2 = 0.1347 | 797.85 ± 0.44
333.01 K, 11162 kPa, x2 = 0.6054 | 813.27 ± 0.45
333.01 K, 12017 kPa, x2 = 0.1347 | 798.71 ± 0.44
333.01 K, 12048 kPa, x2 = 0.6054 | 815.29 ± 0.46
333.01 K, 13025 kPa, x2 = 0.1347 | 799.58 ± 0.44
333.01 K, 13037 kPa, x2 = 0.6054 | 817.51 ± 0.45
333.01 K, 14019 kPa, x2 = 0.1347 | 800.43 ± 0.44
333.01 K, 14041 kPa, x2 = 0.6054 | 819.75 ± 0.45
333.01 K, 15000 kPa, x2 = 0.1347 | 801.26 ± 0.44
333.01 K, 15073 kPa, x2 = 0.6054 | 822.01 ± 0.45
333.01 K, 16013 kPa, x2 = 0.1347 | 802.1 ± 0.44
333.01 K, 16020 kPa, x2 = 0.6054 | 824.01 ± 0.45
333.01 K, 17014 kPa, x2 = 0.1347 | 802.91 ± 0.45
333.01 K, 17032 kPa, x2 = 0.6054 | 826.08 ± 0.45
333.01 K, 18011 kPa, x2 = 0.1347 | 803.75 ± 0.45
333.01 K, 18043 kPa, x2 = 0.6054 | 828.09 ± 0.45
333.01 K, 19014 kPa, x2 = 0.1347 | 804.55 ± 0.45
333.01 K, 19023 kPa, x2 = 0.6054 | 830 ± 0.45
333.01 K, 20028 kPa, x2 = 0.6054 | 831.92 ± 0.45
333.01 K, 20029 kPa, x2 = 0.1347 | 805.36 ± 0.45
333.01 K, 21007 kPa, x2 = 0.1347 | 806.13 ± 0.45
333.01 K, 21051 kPa, x2 = 0.6054 | 833.82 ± 0.45
333.01 K, 22021 kPa, x2 = 0.1347 | 806.92 ± 0.45
333.01 K, 22023 kPa, x2 = 0.6054 | 835.61 ± 0.45
333.01 K, 23026 kPa, x2 = 0.1347 | 807.74 ± 0.45
333.01 K, 23040 kPa, x2 = 0.6054 | 837.43 ± 0.46
333.01 K, 24005 kPa, x2 = 0.1347 | 808.5 ± 0.45
333.01 K, 24066 kPa, x2 = 0.6054 | 839.22 ± 0.46
333.01 K, 25039 kPa, x2 = 0.6054 | 840.93 ± 0.47
333.01 K, 25049 kPa, x2 = 0.1347 | 809.32 ± 0.45
342.76 K, 505 kPa, x2 = 0 | 776.31 ± 0.43
342.76 K, 997 kPa, x2 = 0 | 776.77 ± 0.43
342.76 K, 1995 kPa, x2 = 0 | 777.69 ± 0.43
